Measured values reported in PubChem BioAssay (NCI).
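Five concentrations, 48 hours, 96-well plates. GI50 is the concentration that inhibits growth by half. The concentration for full growth arrest is given as TGI.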

Key:
Assay in all cases: NCI-60 cell line screen, 48 h
[1] = test system: A498 renal
[2] = test system: HCC-2998 colon
[3] = test system: PC-3 prostate
[4] = test system: MDA-MB-435
[5] = test system: U251 CNS
[6] = test system: RXF 393 renal
[7] = test system: 786-0 renal
[8] = test system: KM12 colon
[9] = test system: COLO 205 colon
[10] = test system: NCI-H460 lung
[11] = test system: SF-268 CNS
[12] = test system: NCI-H226 lung
[13] = test system: OVCAR-8 ovarian
[14] = test system: RPMI-8226 leukemia
[15] = test system: SF-295 CNS
[16] = test system: K-562 leukemia
[17] = test system: HOP-62 NSCLC
[18] = test system: OVCAR-3 ovarian
[19] = test system: SF-539 CNS
[20] = test system: EKVX NSCLC
[21] = test system: UO-31 renal
[22] = test system: NCI-H23 lung
[23] = test system: M14 melanoma
[24] = test system: T-47D breast
[25] = test system: UACC-257 melanoma
[26] = test system: HCT-15 colon
[27] = test system: MDA-MB-231 breast
[28] = test system: HT29 colon
[29] = test system: HL-60(TB) leukemia
[30] = test system: ACHN renal
[31] = test system: A549 NSCLC
[32] = test system: MALME-3M melanoma
[33] = test system: CCRF-CEM leukemia
[34] = test system: HOP-92 NSCLC
[35] = test system: UACC-62 melanoma
[36] = test system: NCI-H522 lung
[37] = test system: SK-MEL-5 melanoma
[38] = test system: NCI/ADR-RES ovarian
[39] = test system: IGROV1 ovarian
[40] = test system: HCT-116 colon
[41] = test system: SK-OV-3 ovarian
[42] = test system: OVCAR-5 ovarian
[43] = test system: LOX IMVI melanoma
[44] = test system: SN12C renal
[45] = test system: BT-549 breast
[46] = test system: DU-145 prostate
[47] = test system: SNB-19 CNS
[48] = test system: TK-10 renal
[49] = test system: SR leukemia
[50] = test system: MOLT-4 leukemia
[51] = test system: SW-620 colon
[52] = test system: OVCAR-4 ovarian
[53] = test system: HS 578T breast
[54] = test system: CAKI-1 renal
[55] = test system: SNB-75 CNS
[56] = test system: SK-MEL-28 melanoma
[57] = test system: MCF7 breast

Compound: Nc1ccc(N=Nc2ccccc2)c(N)n1
- GI50 [1]: 12.9 µM
- TGI [1]: 39.8 µM
- GI50 [2]: 24.8 µM
- TGI [2]: 58.8 µM
- GI50 [3]: 21.7 µM
- TGI [3]: > 100 µM
- GI50 [4]: 22.4 µM
- TGI [4]: 80.1 µM
- GI50 [5]: 29.8 µM
- TGI [5]: > 100 µM
- GI50 [6]: 20.3 µM
- TGI [6]: 60.7 µM
- GI50 [7]: 20.8 µM
- TGI [7]: 44.4 µM
- GI50 [8]: 15.5 µM
- TGI [8]: 56.6 µM
- GI50 [9]: 26.1 µM
- TGI [9]: 72.8 µM
- GI50 [10]: 29.1 µM
- TGI [10]: 97.4 µM
- GI50 [11]: 16.8 µM
- TGI [11]: 72.9 µM
- GI50 [12]: 62.6 µM
- TGI [12]: > 100 µM
- GI50 [13]: 37.5 µM
- TGI [13]: > 100 µM
- GI50 [14]: 36.2 µM
- TGI [14]: > 100 µM
- GI50 [15]: 17 µM
- TGI [15]: 50.9 µM
- GI50 [16]: 42.7 µM
- TGI [16]: > 100 µM
- GI50 [17]: 33.9 µM
- TGI [17]: > 100 µM
- GI50 [18]: 20.2 µM
- TGI [18]: 67.9 µM
- GI50 [19]: 29.9 µM
- TGI [19]: > 100 µM
- GI50 [20]: 4.08 µM
- TGI [20]: 33.4 µM
- GI50 [21]: 13.7 µM
- TGI [21]: 43 µM
- GI50 [22]: 31.9 µM
- TGI [22]: > 100 µM
- GI50 [23]: 29.4 µM
- TGI [23]: 74.9 µM
- GI50 [24]: 23.4 µM
- TGI [24]: > 100 µM
- GI50 [25]: 38.6 µM
- TGI [25]: > 100 µM
- GI50 [26]: 35.8 µM
- TGI [26]: > 100 µM
- GI50 [27]: 18 µM
- TGI [27]: 73.7 µM
- GI50 [28]: 34.5 µM
- TGI [28]: > 100 µM
- GI50 [29]: 27.5 µM
- TGI [29]: > 100 µM
- GI50 [30]: 37.2 µM
- TGI [30]: > 100 µM
- GI50 [31]: 27.4 µM
- TGI [31]: > 100 µM
- GI50 [32]: 48.5 µM
- TGI [32]: > 100 µM
- GI50 [33]: 29.4 µM
- TGI [33]: > 100 µM
- GI50 [34]: 14.8 µM
- TGI [34]: 65.9 µM
- GI50 [35]: 32.6 µM
- TGI [35]: > 100 µM
- GI50 [36]: 22.9 µM
- TGI [36]: 86.2 µM
- GI50 [37]: 26.3 µM
- TGI [37]: > 100 µM
- GI50 [38]: 31 µM
- TGI [38]: > 100 µM
- GI50 [39]: 23.7 µM
- TGI [39]: 77.5 µM
- GI50 [40]: 23 µM
- TGI [40]: 60.5 µM
- GI50 [41]: 30.1 µM
- TGI [41]: > 100 µM
- GI50 [42]: 40.3 µM
- TGI [42]: > 100 µM
- GI50 [43]: 29 µM
- TGI [43]: > 100 µM
- GI50 [44]: 30.4 µM
- TGI [44]: > 100 µM
- GI50 [45]: 16.6 µM
- TGI [45]: 46.1 µM
- GI50 [46]: 25.2 µM
- TGI [46]: 81 µM
- GI50 [47]: 40.7 µM
- TGI [47]: > 100 µM
- GI50 [48]: 41.2 µM
- TGI [48]: > 100 µM
- GI50 [49]: 18.1 µM
- TGI [49]: > 100 µM
- GI50 [50]: 35.4 µM
- TGI [50]: > 100 µM
- GI50 [51]: 28.6 µM
- TGI [51]: > 100 µM

Compound: COc1ccc(-c2nsc3c2NC(=O)CC3c2ccc3c(c2)OCO3)cc1 (stereo not drawn)
- GI50 [1]: 1.05 µM
- TGI [1]: 7.05 µM
- GI50 [2]: 1.6 µM
- TGI [2]: 6.37 µM
- GI50 [3]: 2.01 µM
- TGI [3]: > 100 µM
- GI50 [4]: 0.219 µM
- TGI [4]: 0.539 µM
- GI50 [6]: 1.38 µM
- TGI [6]: 7.88 µM
- GI50 [7]: 3.24 µM
- TGI [7]: > 100 µM
- GI50 [8]: 0.645 µM
- TGI [8]: > 100 µM
- GI50 [9]: 0.627 µM
- TGI [9]: 3.72 µM
- GI50 [10]: 0.498 µM
- TGI [10]: > 100 µM
- GI50 [11]: 6.44 µM
- TGI [11]: > 100 µM
- GI50 [12]: 7.28 µM
- TGI [12]: > 100 µM
- GI50 [13]: 3.04 µM
- TGI [13]: > 100 µM
- GI50 [14]: 2.51 µM
- TGI [14]: > 100 µM
- GI50 [15]: 1.92 µM
- TGI [15]: 25.9 µM
- GI50 [16]: 0.408 µM
- TGI [16]: > 100 µM
- GI50 [17]: 1.92 µM
- TGI [17]: > 100 µM
- GI50 [18]: 0.874 µM
- TGI [18]: 10.4 µM
- GI50 [19]: 1.05 µM
- TGI [19]: 3.7 µM
- GI50 [52]: 6.03 µM
- TGI [52]: > 100 µM
- GI50 [21]: 5.09 µM
- TGI [21]: > 100 µM
- GI50 [22]: 3.2 µM
- TGI [22]: > 100 µM
- GI50 [53]: 2.06 µM
- TGI [53]: 54.5 µM
- GI50 [23]: 0.715 µM
- TGI [23]: > 100 µM
- GI50 [24]: 0.724 µM
- TGI [24]: > 100 µM
- GI50 [25]: 10.8 µM
- TGI [25]: > 100 µM
- GI50 [26]: 0.493 µM
- TGI [26]: > 100 µM
- GI50 [27]: 1.13 µM
- TGI [27]: 11.6 µM
- GI50 [28]: 0.414 µM
- TGI [28]: 11.3 µM
- GI50 [29]: 0.579 µM
- TGI [29]: 8.32 µM
- GI50 [30]: 3.14 µM
- TGI [30]: > 100 µM
- GI50 [54]: 0.852 µM
- TGI [54]: > 100 µM
- GI50 [31]: 0.841 µM
- TGI [31]: > 100 µM
- GI50 [32]: 0.77 µM
- TGI [32]: > 100 µM
- GI50 [33]: 1.09 µM
- TGI [33]: 8.49 µM
- GI50 [35]: 1.21 µM
- TGI [35]: > 100 µM
- GI50 [36]: 0.464 µM
- TGI [36]: 3.57 µM
- GI50 [37]: 1.46 µM
- TGI [37]: 42.2 µM
- GI50 [38]: 0.524 µM
- TGI [38]: 6.12 µM
- GI50 [39]: 2.61 µM
- TGI [39]: > 100 µM
- GI50 [40]: 0.574 µM
- TGI [40]: > 100 µM
- GI50 [41]: 2.33 µM
- TGI [41]: > 100 µM
- GI50 [42]: 3.19 µM
- TGI [42]: > 100 µM
- GI50 [44]: 2.55 µM
- TGI [44]: > 100 µM
- GI50 [55]: 1.49 µM
- TGI [55]: 9.97 µM
- GI50 [45]: 2.54 µM
- TGI [45]: > 100 µM
- GI50 [46]: 2.78 µM
- TGI [46]: 53.1 µM
- GI50 [56]: 5.28 µM
- TGI [56]: > 100 µM
- GI50 [47]: 48.7 µM
- TGI [47]: > 100 µM
- GI50 [57]: 0.367 µM
- TGI [57]: > 100 µM
- GI50 [48]: 8.25 µM
- TGI [48]: > 100 µM
- GI50 [49]: 0.401 µM
- TGI [49]: 39.3 µM
- GI50 [50]: 1.29 µM
- TGI [50]: 18.7 µM
- GI50 [51]: 0.514 µM
- TGI [51]: > 100 µM
